The source of these data is patent US20240041042A1, “1-(PYRIDYL)-5-AZINYLPYRAZOLE DERIVATIVES, AND THEIR USE FOR CONTROL OF UNDESIRED PLANT GROWTH” (Bayer Aktiengesellschaft, priority 2020, published 2024).

Where two headings read alike, the source gives them in different places.

Holding throughout (format): in vivo
The subject of data set [1] is Alopecurus myosuroides (ALOMY). Briefly: Pre-emergence herbicidal action against ALOMY. Conditions: 320 g/ha; scored visually after about 3 weeks; 100% = plants have died. In short, it runs like this:
(§1)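 Pre-emergence soil-surface spray of compound, formulated as wettable powder or emulsion concentrate, in aqueous suspension or emulsion with 0.5% additive (600 l/ha; rate 320 g/ha or less). Activity rated visually after roughly 3 weeks in the greenhouse as a percentage of untreated controls, 0% meaning no difference.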

For the next data set, the system named is Lolium rigidum (LOLRI). Briefly: Pre-emergence herbicidal action against LOLRI. Conditions: dosage 320 g/ha. In short, it runs like this:
as §1

Data set [2] relates to Setaria viridis (SETVI). Briefly: Pre-emergence herbicidal action against SETVI. Conditions: dosage 320 g/ha. In short, it runs like this: as §1
The test system of a further data set is Brassica napus (BRSNW). Conditions: crop plant compatibility, in comparison to untreated controls. In short, it runs like this: (§2)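 Scoring: visual, % of untreated control, about 3 weeks after a pre-emergence application to the soil surface. Application used WP or EC formulations diluted in water with 0.5% additive at 600 l/ha; dosage levels are marked by suffixes a, b and c.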

In a further data set the test system is Glycine max (GLXMA). Conditions: pre-emergence, 80 g/ha, crop plant compatibility, in comparison to untreated controls. In short, it runs like this:
as §2

Data set [3] deals with Oryza sativa (ORYSA). The following applies: pre-emergence, crop plant compatibility, in comparison to untreated controls. An outline of the steps: as §2
In data set [4] the test system is Triticum aestivum (TRZAS). Conditions: pre-emergence, crop plant compatibility, in comparison to untreated controls. In short, it runs like this:
as §2

In data set [5] the test system is Zea mays (ZEAMX). The following applies: pre-emergence, crop plant compatibility, in comparison to untreated controls. An outline of the steps:
as §2

For data set [6], the system named is Alopecurus myosuroides (ALOMY). Briefly: Post-emergence herbicidal action against ALOMY. The following applies: visual rating about 3 weeks after treatment vs untreated controls (100% = plants have died, 0% = like control plants). An outline of the steps: (§3)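 Post-emergence greenhouse spray, one-leaf stage, 600 l/ha water plus 0.5% additive; WP or EC formulations; application rates 320 g/ha or lower. Visual % damage vs untreated controls at ~3 weeks.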

Data set [7] concerns Amaranthus retroflexus (AMARE). Briefly: Post-emergence herbicidal action against AMARE. In short, it runs like this:
as §3

Data set [8] has as its system Oryza sativa (ORYSA). Conditions: crop plant compatibility. In short, it runs like this:
(§4)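 Effects were read visually as % versus untreated controls (0% = no effect, 100% = death) about 3 weeks post-treatment. Application was a post-emergence spray at the one-leaf stage of WP/EC formulations with 0.5% additive at 600 l/ha. Different dosages are denoted a, b and c.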

In data set [9] the test system is Triticum aestivum (TRZAS). The following applies: crop plant compatibility, effect vs untreated controls. An outline of the steps:
as §4

Data set [10] relates to Zea mays (ZEAMX). The following applies: for Post-emergence action against ZEAMX in %: crop plant compatibility, 80 g/ha, effect vs untreated controls. An outline of the steps:
as §4

The test system of data set [11] is Amaranthus retroflexus (AMARE). Briefly: Pre-emergence herbicidal action against AMARE. Conditions: 320 g/ha, visual scoring after about 3 weeks vs untreated controls. In short, it runs like this:
as §1

Data set [12] concerns Abutilon theophrasti (ABUTH). Briefly: Post-emergence herbicidal action against ABUTH. Conditions: 320 g/ha, visual rating about 3 weeks after treatment vs untreated controls (100% = plants have died, 0% = like control plants). In short, it runs like this:
as §3

A further data set has as its system Avena fatua (AVEFA). Briefly: Post-emergence herbicidal action against AVEFA. The following applies: 320 g/ha, visual rating about 3 weeks after treatment. In short, it runs like this: as §3
Data set [13] deals with Pharbitis purpurea (PHBPU). Briefly: Post-emergence herbicidal action against PHBPU. Conditions: dosage 320 g/ha. An outline of the steps: as §3
In data set [14] the test system is Setaria viridis (SETVI). Briefly: Post-emergence herbicidal action against SETVI. An outline of the steps:
as §3

Data set [15] deals with Verconica persica (VERPE). Briefly: Post-emergence herbicidal action against VERPE. The following applies: 320 g/ha, VERPE. An outline of the steps:
as §3

Another data set deals with Viola tricolor (VIOTR). Briefly: Post-emergence herbicidal action against VIOTR. Conditions: 320 g/ha. An outline of the steps:
as §3

The mark [16] stands for this setting: 80 g/ha, visual rating about 3 weeks after treatment vs untreated controls (100% = plants have died, 0% = like control plants).
[17] abbreviates: 80 g/ha, effect in comparison to untreated controls.
Setting [18] is: 320 g/ha, effect in comparison to untreated controls.

Consider `COC(=O)CCOC(=O)COc1nn(-c2ccccn2)c(-c2cncc(F)c2)c1C1CC1` [Example I-71], for which, in data set [1], the “Pre-emergence action against ALOMY” value was 90%. Further, the “Pre-emergence action against LOLRI in %” value in the data set with Lolium rigidum (LOLRI) amounted to 90%. Also, the “Pre-emergence action against SETVI in %” value in the data set on Setaria viridis (SETVI) [2] is given as 100%. Further, the “Pre-emergence action against BRSNW in %” value in the data set with Brassica napus (BRSNW) (80 g/ha) was 0%. For the same compound, in the data set with Glycine max (GLXMA), the “Pre-emergence action against GLXMA in %” value is reported as 20%. Further, the “Pre-emergence action against ORYSA in %” value in the data set with Oryza sativa (ORYSA) [3] (80 g/ha) worked out at 10%. The “Pre-emergence action against TRZAS in %” value in data set [4] (80 g/ha) turned out to be 10%. The “Pre-emergence action against ZEAMX in %” value in the data set on Zea mays (ZEAMX) [5] (80 g/ha) is recorded as 10%. Also, the “Post-emergence action against ALOMY in %” value in data set [6] (80 g/ha) is 90%. The “Post-emergence action against AMARE in %” value in data set [7] (setting [16]) came out at 90%. Also, the “Post-emergence action against ORYSA in %” value in the data set with Oryza sativa (ORYSA) [8] (20 g/ha, effect vs untreated controls) is 10%; with Oryza sativa (ORYSA) [8] (setting [17]) it was 20%. Also, in data set [9] (20 g/ha), the “Post-emergence action against TRZAS in %” value is 10%. The “Post-emergence action against ZEAMX in % (crop plant compatibility)” value with Zea mays (ZEAMX) [10] (20 g/ha, ZEAMX, effect in comparison to untreated controls) is on record as 0%. For the same compound, in the data set on Zea mays (ZEAMX) [10], the “Post-emergence action against ZEAMX in %” value is reported as 10%.
Consider `O=C(O)COc1nn(-c2ccnc(Cl)c2)c(-c2ccc(F)nc2)c1Br` [III-23], for which the “Pre-emergence action against ALOMY” value in data set [1] turned out to be 90%. Moreover, in data set [11], the “Pre-emergence action against AMARE in %” value was 90%. Also, the “Pre-emergence action against LOLRI in %” value in the data set with Lolium rigidum (LOLRI) was determined as 100%. For the same compound, the “Pre-emergence action against SETVI in %” value in the data set on Setaria viridis (SETVI) [2] turned out to be 100%. Moreover, the “Pre-emergence action against BRSNW in %” value in the data set with Brassica napus (BRSNW) (80 g/ha) and with Brassica napus (BRSNW) (320 g/ha) was 0% in each case. Moreover, the “Pre-emergence action against GLXMA in %” value with Glycine max (GLXMA) was 0%. Also, in the data set on Oryza sativa (ORYSA) [3] (80 g/ha), the “Pre-emergence action against ORYSA in %” value was 0%. Moreover, the “Pre-emergence action against TRZAS in %” value in data set [4] (80 g/ha) was 0%. Also, the “Pre-emergence action against ZEAMX in %” value in the data set with Zea mays (ZEAMX) [5] (80 g/ha) and in the data set on Zea mays (ZEAMX) [5] (320 g/ha) was 0% throughout. In addition, the “Post-emergence action against ABUTH in %” value in data set [12] came out at 80%. Moreover, the “Post-emergence action against ALOMY in %” value in data set [6] (320 g/ha) is reported as 100%. Also, the “Post-emergence action against AMARE in %” value in [7] (setting [16]) was 90%; in data set [7] (320 g/ha, visual rating about 3 weeks after treatment), 90%. The “Post-emergence action against AVEFA in %” value in the data set with Avena fatua (AVEFA) turned out to be 80%. For the same compound, in data set [13], the “Post-emergence action against PHBPU in %” value is on record as 80%. The “Post-emergence action against SETVI in %” value with Setaria viridis (SETVI) [14] (dosage 80 g/ha) was determined as 80%; in the data set on Setaria viridis (SETVI) [14] (dosage 320 g/ha) it was 100%. Moreover, the “Post-emergence action against VERPE in %” value in data set [15] is reported as 90%. Further, the “Post-emergence action against VIOTR in %” value in the data set on Viola tricolor (VIOTR) turned out to be 90%. Also, the “Post-emergence action against ORYSA in %” value in the data set with Oryza sativa (ORYSA) [8] (setting [17]) is 0%; with Oryza sativa (ORYSA) [8] (setting [18]) it was 20%. In addition, the “Post-emergence action against TRZAS in %” value in data set [9] (80 g/ha) stood at 0%. The “Post-emergence action against ZEAMX in %” value in the data set on Zea mays (ZEAMX) [10] turned out to be 0%.
Turning to `O=C(O)CNC(=O)COc1nn(-c2ccnc(F)c2)c(-c2ccc(F)nc2)c1Br` [III-26], the “Pre-emergence action against BRSNW in %” value in the data set with Brassica napus (BRSNW) (80 g/ha) is 0%. For the same compound, the “Pre-emergence action against GLXMA in %” value in the data set on Glycine max (GLXMA) was determined as 0%. Further, the “Pre-emergence action against ORYSA in %” value in the data set with Oryza sativa (ORYSA) [3] (80 g/ha) and in the data set with Oryza sativa (ORYSA) [3] (320 g/ha) was 0% each time. In addition, the “Pre-emergence action against TRZAS in %” value in data set [4] (80 g/ha) came out at 0%; in data set [4] (320 g/ha), 20%. Also, the “Pre-emergence action against ZEAMX in %” value with Zea mays (ZEAMX) [5] (80 g/ha) and in the data set on Zea mays (ZEAMX) [5] (320 g/ha) was 0% in each case. Further, the “Post-emergence action against ORYSA in %” value was determined as 10% with Oryza sativa (ORYSA) [8] (setting [17]) and 20% in the data set on Oryza sativa (ORYSA) [8] (setting [18]). Also, the “Post-emergence action against TRZAS in %” value in [9] (80 g/ha) stood at 20%. Moreover, the “Post-emergence action against ZEAMX in %” value in the data set on Zea mays (ZEAMX) [10] came out at 20%.
